# Assay results as given in US4263318A, “N-alkoxy- and N-aryloxysulfinylcarbamate esters” (priority 1979, dated 1981).
# Where two headings read alike, the source gives them in different places.
# Assays:
# Assay type in all cases: in vivo
# [1] = test system: house flies, Musca domestica; experiment: Insecticidal activity against house flies (topical on the notum, mortality at 24 h); details: for LD50: Musca domestica, topical, read-out: House flies LD50
# Protocol: (§1) Representative compounds of the N-aryloxy- and N-alkoxysulfinylcarbamate esters of the invention were tested for insecticidal activity against two insect species, house flies, Musca domestica, and mosquito larvae, Culex pipiens. Stock 1% concentrated solutions of each of the test compounds were made in acetone, and such solutions diluted with acetone to a concentration of 0.001-0.1%. House files were treated topically on the notum by 1 μL of each of the diluted acetone solutions and percent mortality was counted 24 hours after application. Insects were held at a constant temperature of 60° F. Larvicidal activity was determined by applying 1 ml of the acetone solutions in 100 ml of water containing 20 3rd instar mosquito larvae. Results are presented as LD50 in μg/g for house flies and LC50 in ppm for mosquito larvae.
# [2] = Mammalian toxicity, oral, Swiss white mice; details: mouse, in vivo
# Protocol: (§2) Mammalian toxicity was determined against Swiss white mice.
# [3] = test system: mosquito larvae, Culex pipiens; experiment: Larvicidal activity against mosquito larvae; details: 1 ml acetone solution in 100 ml water containing 20 3rd instar larvae
# Protocol: as §1
# Swiss white mice = experiment: Mammalian toxicity, oral, Swiss white mice; details: compared with aldicarb / carbofuran
# Protocol: as §2
# [4] = oral, corn oil carrier, read-out: Mice LD50
# [5] = 1 μL acetone solution on the notum, mortality 24 hours after application, 60° F
Structure (SMILES),LD50 ([1]; 24 h),"LD50 [2, 4]",Culex LC50 [3],other results
"CC(C)Oc1ccccc1OC(=O)N(C)S(=O)OC(C)(C)C (centres unmarked) [IX, 2-isopropoxyphenyl (methyl)(t-butoxysulfinyl)carbamate]",65 mg/kg,400 mg/kg,,
"CCCCCCOS(=O)N(C)C(=O)Oc1cccc(C(C)C)c1 (centres unmarked) [VII, 3-isopropylphenyl (methyl)(n-hexoxysulfinyl)carbamate]",80 mg/kg,> 1000 mg/kg,,
"CCCCOS(=O)N(C)C(=O)ON=C(C)SC (centres unmarked) [XI, S-methyl N-[N'-methyl-N'-butoxysulfinylcarbamoyloxy]thioacetimidate]",,,,"LD50 [1, 5]: 5.5 mg/kg"
"CCCCCCCCCCOS(=O)N(C)C(=O)ON=CC(C)(C)SC (centres unmarked) [XII, 2-methyl-2-(methylthio)propionaldehyde O-[(methyl)(decoxysulfinyl)carbamoyl]oxime]",,60 mg/kg,0.006 ppm,"LD50 [1, 5]: 11.5 mg/kg; toxicity to house flies compared with parent carbamate ([1]; compared with aldicarb / carbofuran): comparable toxicity; mammalian safety/toxicity compared with parent carbamate (Swiss white mice): much safer to mammals"
"CCCCOS(=O)N(C)C(=O)Oc1cccc2c1OC(C)(C)C2 (centres unmarked) [III, 2,3-dihydro-2,2-dimethylbenzofuranyl-7(methyl)(n-butoxysulfinyl)carbamate]",16 mg/kg,160 mg/kg,,
"Cc1cccc(C)c1OS(=O)N(C)C(=O)Oc1cccc2c1OC(C)(C)C2 (centres unmarked) [V, 2,3-dihydro-2,2-dimethylbenzofuranyl-7(methyl)(2,6-dimethylphenoxysulfinyl)carbamate]",13.5 mg/kg,100 mg/kg,,
"CN(C(=O)Oc1cccc2c1OC(C)(C)C2)S(=O)OC(C)(C)C (centres unmarked) [II, 2,3-dihydro-2,2-dimethylbenzofuranyl-7(methyl)(t-butoxysulfinyl)carbamate]",2.2 mg/kg,40 mg/kg,0.0058 ppm,
"CCCCCCOS(=O)N(C)C(=O)Oc1cccc2ccccc12 (centres unmarked) [XIII, 1-naphthyl(methyl)(hexoxysulfinyl)carbamate]",360 mg/kg,> 1000 mg/kg,,
"CCCCOS(=O)N(C)C(=O)Oc1cccc(C(C)C)c1 (centres unmarked) [VI, 3-isopropylphenyl (methyl)(n-butoxysulfinyl)carbamate]",50 mg/kg,,,
"CCCCCCOS(=O)N(C)C(=O)ON=C(C)SC (centres unmarked) [X, S-methyl N-[N'-methyl-N'-hexoxysulfinylcarbamoyloxy]thioacetimidate]",,260 mg/kg,,"LD50 [1, 5]: 6.5 mg/kg"
"CNC(=O)O/N=C/C(C)(C)SC [aldicarb, 2-methyl-2-(methylthio)propionaldehyde 0-(methylcarbamoyl)oxime, reference compound]",,,,"LD50 ([2]; po, comparison value for parent aldicarb, read-out: LD50 (parent carbamate aldicarb, mammalian toxicity, text)): 0.3 to 0.5 mg/kg"
"CN(C(=O)Oc1cccc2c1OC(C)(C)C2)S(=O)Oc1ccccc1 (centres unmarked) [IV, 2,3-dihydro-2,2-dimethylbenzofuranyl-7(methyl)(phenoxysulfinyl)carbamate]",6.4 mg/kg,42 mg/kg,0.0055 ppm,
"CCCCCCOS(=O)N(C)C(=O)Oc1cccc2c1OC(C)(C)C2 (centres unmarked) [Example I, 2,3-dihydro-2,2-dimethylbenzofuranyl-7(methyl)(hexoxysulfinyl)carbamate]",13 mg/kg,280 mg/kg,0.0025 ppm,
"CCCCCCOS(=O)N(C)C(=O)Oc1ccccc1OC(C)C (centres unmarked) [VIII, 2-isopropoxyphenyl (methyl)(n-hexoxysulfinyl)carbamate]",42 mg/kg,> 1000 mg/kg,0.01 ppm,
